Values quoted from earlier work, collected in patent US8765739B2, “Azetidine compound and pharmaceutical use thereof” (Japan Tobacco Inc., priority 2009, dated 2014).

How the values were obtained:
[1] = test system: mice with collagen-induced arthritis
[2] = test system: rats suffering from experimental autoimmune encephalomyelitis; settings: animal model of multiple sclerosis
[3] = test system: bone absorption induced by metastatic cancer in rat

Q: For COc1cc(Oc2ccnc3cc(OC)c(OC)cc23)ccc1NC(=O)NC(C)c1nccs1 (stereo not drawn) [Ki20227], which “swellings and bone destructions” value [1] is on record?
A: improves swellings and bone destructions

Q: And the “condition of rats with experimental autoimmune encephalomyelitis” value [2]?
A: improves the condition

Q: What about the “bone absorption induced by metastatic cancer” value [3] of the same molecule?
A: improves bone absorption
